The record followed here is patent publication EP4722207A1, “OXOISOINDOLINYL-SUBSTITUTED TETRAHYDROPYRIMIDINEDIONE DERIVATIVE AND USE THEREOF” (Gluetacs Therapeutics (Shanghai) Co., Ltd., priority 2023, dated 2024).

What all share (format): cell-based
Details in all cases: 24 hours of compound treatment, 50 nM and 500 nM

One assay addresses T1, WEE1 (Homo sapiens, UniProt P30291+Q96SW2).
T1 construct: effects of the compounds of the present disclosure on the expression of target proteins in cells; endogenous in cells; host or cells: human PBMCs (hPBMCs)
Put plainly: Western-blot assay, substrate protein degradation in hPBMCs: WEE1.

A further assay has as its target T2, IKZF1 (Homo sapiens, UniProt Q13422+Q96SW2).
T2 construct: effects of the compounds of the present disclosure on the expression of target proteins in cells; endogenous in cells; host or cells: human PBMCs (hPBMCs)
Put plainly: Western-blot assay, substrate protein degradation in hPBMCs: IKZF1.

The target in a further assay is T3, IKZF2 (Homo sapiens, UniProt Q96SW2+Q9UKS7).
T3 construct: effects of the compounds of the present disclosure on the expression of target proteins in cells; endogenous in cells; host or cells: human PBMCs (hPBMCs)
Put plainly: Western-blot assay, substrate protein degradation in hPBMCs: IKZF2.

The target in a further assay is T4, IKZF3 (Homo sapiens, UniProt Q96SW2+Q9UKT9).
T4 construct: effects of the compounds of the present disclosure on the expression of target proteins in cells; endogenous in cells; host or cells: human PBMCs (hPBMCs)
Put plainly: Western-blot assay, substrate protein degradation in hPBMCs: IKZF3.

The target of another assay is T5, CK1α (Homo sapiens, UniProt P48729+Q96SW2).
T5 construct: effects of the compounds of the present disclosure on the expression of target proteins in cells; endogenous in cells; host or cells: human PBMCs (hPBMCs)
Briefly: Western-blot assay, substrate protein degradation in hPBMCs: CK1α.

The next assay concerns the target T6, GSPT1 (Homo sapiens, UniProt P15170+Q96SW2).
T6 construct: effects of the compounds of the present disclosure on the expression of target proteins in cells; endogenous in cells; host or cells: human PBMCs (hPBMCs)
Briefly: Western-blot assay, substrate protein degradation in hPBMCs: GSPT1.

T5 sequence (P48729 whole entry): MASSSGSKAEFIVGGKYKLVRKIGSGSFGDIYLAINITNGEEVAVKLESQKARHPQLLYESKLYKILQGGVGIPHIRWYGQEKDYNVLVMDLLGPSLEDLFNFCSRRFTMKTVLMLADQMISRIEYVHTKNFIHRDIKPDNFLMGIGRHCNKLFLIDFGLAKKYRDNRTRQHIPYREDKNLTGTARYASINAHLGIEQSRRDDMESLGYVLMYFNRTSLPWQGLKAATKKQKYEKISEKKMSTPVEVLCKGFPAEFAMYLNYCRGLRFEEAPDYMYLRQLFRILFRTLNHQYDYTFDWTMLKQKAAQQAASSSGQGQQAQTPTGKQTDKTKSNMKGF
T5 sequence (Q96SW2 whole entry): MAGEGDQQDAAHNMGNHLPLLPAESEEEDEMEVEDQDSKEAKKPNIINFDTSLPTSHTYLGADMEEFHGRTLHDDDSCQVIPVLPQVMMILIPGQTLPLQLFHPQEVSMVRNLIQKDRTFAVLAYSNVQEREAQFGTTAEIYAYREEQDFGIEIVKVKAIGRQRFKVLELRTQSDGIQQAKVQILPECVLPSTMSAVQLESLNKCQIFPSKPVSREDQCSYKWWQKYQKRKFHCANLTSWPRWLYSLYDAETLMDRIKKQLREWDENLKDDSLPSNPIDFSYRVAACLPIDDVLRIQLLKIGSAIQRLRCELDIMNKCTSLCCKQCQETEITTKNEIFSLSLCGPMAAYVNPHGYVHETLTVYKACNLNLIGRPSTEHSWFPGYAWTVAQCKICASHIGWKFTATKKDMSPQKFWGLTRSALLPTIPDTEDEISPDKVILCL
T5 sequence (Q16531 whole entry partner): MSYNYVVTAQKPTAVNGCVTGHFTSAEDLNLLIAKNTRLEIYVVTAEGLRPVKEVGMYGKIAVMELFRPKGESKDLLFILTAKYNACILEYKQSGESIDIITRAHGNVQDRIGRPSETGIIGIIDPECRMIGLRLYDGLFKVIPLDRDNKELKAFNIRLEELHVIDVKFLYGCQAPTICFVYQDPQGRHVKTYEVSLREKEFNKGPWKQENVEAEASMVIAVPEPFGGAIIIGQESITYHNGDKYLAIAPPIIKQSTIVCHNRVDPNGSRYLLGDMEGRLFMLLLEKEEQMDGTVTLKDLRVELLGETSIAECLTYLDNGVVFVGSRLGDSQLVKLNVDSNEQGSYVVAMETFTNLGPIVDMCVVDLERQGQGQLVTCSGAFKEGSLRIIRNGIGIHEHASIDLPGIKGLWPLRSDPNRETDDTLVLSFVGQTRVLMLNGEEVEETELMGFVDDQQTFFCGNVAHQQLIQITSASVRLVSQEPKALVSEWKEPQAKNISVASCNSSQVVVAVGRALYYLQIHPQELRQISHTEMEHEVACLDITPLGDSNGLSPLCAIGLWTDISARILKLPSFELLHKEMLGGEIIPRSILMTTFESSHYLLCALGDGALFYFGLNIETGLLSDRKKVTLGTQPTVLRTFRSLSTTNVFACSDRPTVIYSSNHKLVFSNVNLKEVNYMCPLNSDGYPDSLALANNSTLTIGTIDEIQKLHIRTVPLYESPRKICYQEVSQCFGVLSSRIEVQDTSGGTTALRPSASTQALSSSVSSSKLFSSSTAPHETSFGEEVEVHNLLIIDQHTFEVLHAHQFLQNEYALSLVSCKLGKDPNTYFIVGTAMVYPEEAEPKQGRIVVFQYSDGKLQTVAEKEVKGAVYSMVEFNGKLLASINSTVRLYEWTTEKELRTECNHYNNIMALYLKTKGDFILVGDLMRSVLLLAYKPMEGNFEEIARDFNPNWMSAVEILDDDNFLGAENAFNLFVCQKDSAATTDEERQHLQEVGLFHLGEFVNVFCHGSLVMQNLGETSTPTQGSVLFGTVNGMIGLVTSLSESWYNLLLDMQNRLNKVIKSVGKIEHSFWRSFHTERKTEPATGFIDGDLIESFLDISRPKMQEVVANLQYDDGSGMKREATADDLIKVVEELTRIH
T6 sequence (P15170 whole entry): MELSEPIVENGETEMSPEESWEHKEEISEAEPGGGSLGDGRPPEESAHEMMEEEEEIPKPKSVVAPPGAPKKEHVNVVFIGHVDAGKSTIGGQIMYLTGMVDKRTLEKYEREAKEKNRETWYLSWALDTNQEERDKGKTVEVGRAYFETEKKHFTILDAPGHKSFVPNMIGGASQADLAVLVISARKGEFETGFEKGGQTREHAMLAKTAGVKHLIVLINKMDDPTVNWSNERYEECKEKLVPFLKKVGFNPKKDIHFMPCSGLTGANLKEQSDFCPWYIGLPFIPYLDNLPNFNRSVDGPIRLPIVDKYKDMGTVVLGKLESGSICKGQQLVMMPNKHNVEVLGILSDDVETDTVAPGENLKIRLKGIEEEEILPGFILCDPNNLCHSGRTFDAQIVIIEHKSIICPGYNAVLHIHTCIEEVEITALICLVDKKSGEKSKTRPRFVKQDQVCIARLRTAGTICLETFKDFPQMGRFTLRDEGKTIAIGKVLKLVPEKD
T6 sequence (Q96SW2 whole entry): as the sequence (Q96SW2 whole entry) above
T6 sequence (Q16531 whole entry partner): as the sequence (Q16531 whole entry partner) above
T3 sequence (Q9UKS7 whole entry): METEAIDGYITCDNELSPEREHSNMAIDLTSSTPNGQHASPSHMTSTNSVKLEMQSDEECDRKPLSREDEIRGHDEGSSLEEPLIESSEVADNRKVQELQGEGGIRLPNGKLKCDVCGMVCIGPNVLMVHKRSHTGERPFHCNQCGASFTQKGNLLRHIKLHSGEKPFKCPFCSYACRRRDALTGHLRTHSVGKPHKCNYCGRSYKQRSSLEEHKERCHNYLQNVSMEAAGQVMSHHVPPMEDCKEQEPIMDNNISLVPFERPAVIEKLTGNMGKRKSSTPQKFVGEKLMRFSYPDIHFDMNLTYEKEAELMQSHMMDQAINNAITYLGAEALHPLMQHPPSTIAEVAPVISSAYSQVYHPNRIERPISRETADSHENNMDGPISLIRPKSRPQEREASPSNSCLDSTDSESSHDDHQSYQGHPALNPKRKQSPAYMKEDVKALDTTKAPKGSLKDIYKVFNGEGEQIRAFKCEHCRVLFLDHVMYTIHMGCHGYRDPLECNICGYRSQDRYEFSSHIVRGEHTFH
T3 sequence (Q96SW2 whole entry): as the sequence (Q96SW2 whole entry) above
T3 sequence (Q16531 whole entry partner): as the sequence (Q16531 whole entry partner) above
T2 sequence (Q13422 whole entry): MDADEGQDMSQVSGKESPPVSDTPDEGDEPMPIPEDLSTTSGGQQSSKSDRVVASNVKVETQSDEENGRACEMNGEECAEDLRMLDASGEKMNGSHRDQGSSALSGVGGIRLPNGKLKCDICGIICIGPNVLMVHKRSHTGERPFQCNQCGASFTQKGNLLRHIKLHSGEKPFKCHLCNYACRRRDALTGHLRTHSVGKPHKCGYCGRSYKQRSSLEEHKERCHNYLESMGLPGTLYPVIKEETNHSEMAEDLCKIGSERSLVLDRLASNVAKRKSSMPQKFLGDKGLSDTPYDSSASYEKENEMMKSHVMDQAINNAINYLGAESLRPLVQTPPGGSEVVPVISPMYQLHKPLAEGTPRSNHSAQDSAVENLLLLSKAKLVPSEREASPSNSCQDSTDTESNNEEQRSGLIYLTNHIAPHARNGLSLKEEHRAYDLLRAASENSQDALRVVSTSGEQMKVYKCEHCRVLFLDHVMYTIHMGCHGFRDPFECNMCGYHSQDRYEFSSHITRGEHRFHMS
T2 sequence (Q96SW2 whole entry): as the sequence (Q96SW2 whole entry) above
T2 sequence (Q16531 whole entry partner): as the sequence (Q16531 whole entry partner) above
T4 sequence (Q9UKT9 whole entry): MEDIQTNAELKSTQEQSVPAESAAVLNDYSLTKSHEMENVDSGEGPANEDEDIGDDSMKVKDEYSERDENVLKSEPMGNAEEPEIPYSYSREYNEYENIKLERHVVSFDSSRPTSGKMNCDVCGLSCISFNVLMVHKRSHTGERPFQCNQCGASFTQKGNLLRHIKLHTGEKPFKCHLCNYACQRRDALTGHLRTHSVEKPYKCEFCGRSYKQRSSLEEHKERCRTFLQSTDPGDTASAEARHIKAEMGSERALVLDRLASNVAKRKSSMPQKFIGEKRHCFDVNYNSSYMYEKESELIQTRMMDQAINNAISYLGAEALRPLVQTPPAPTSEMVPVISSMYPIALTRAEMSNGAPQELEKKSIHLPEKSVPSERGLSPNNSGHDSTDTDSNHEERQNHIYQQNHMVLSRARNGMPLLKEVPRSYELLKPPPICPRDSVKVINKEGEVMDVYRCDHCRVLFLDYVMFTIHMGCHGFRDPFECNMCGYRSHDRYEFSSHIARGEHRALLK
T4 sequence (Q96SW2 whole entry): as the sequence (Q96SW2 whole entry) above
T4 sequence (Q16531 whole entry partner): as the sequence (Q16531 whole entry partner) above

For the compound `CC1(C)CCC(CN2CC3CC2CN3Cc2ccc3c(c2)CN(N2CCC(=O)NC2=O)C3=O)=C(c2ccc(Cl)cc2)C1` (stereo not drawn) [GT-07329, 1-(5-((5-((4'-chloro-5,5-dimethyl-3,4,5,6-tetrahydro-[1,1'-biphenyl]-2-yl)methyl)-2,5-diazabicyclo[2.2.1]heptan-2-yl)methyl)-1-oxoisoindolin-2-yl)dihydropyrimidine-2,4(1H,3H)-dione], the “substrate protein remaining % WEE1” value at WEE1 is “A (0% ≤ substrate protein remaining % ≤ 80%)”. Also, the “substrate protein remaining % IKZF1” value at IKZF1 is “B (80%< substrate protein remaining %≤ 100%)”. For the same compound, the “substrate protein remaining % IKZF2” value at IKZF2 is “B (80%< substrate protein remaining %≤ 100%)”. In addition, the “substrate protein remaining % IKZF3” value at IKZF3 is “B (80%< substrate protein remaining %≤ 100%)”. The “substrate protein remaining % CK1α” value on CK1α is “B (80%< substrate protein remaining %≤ 100%)”. Further, at GSPT1, the “substrate protein remaining % GSPT1” value is given as “A (0% ≤ substrate protein remaining % ≤ 80%)”.
Regarding `CC1(C)CCC(CN2CC3CCC(C2)N3Cc2ccc3c(c2)CN(N2CCC(=O)NC2=O)C3=O)=C(c2ccc(Cl)cc2)C1` [GT-07330, 1-(5-((3-((4'-chloro-5,5-dimethyl-3,4,5,6-tetrahydro-[1,1'-biphenyl]-2-yl)methyl)-3,8-diazabicyclo[3.2.1]octan-8-yl)methyl)-1-oxoisoindolin-2-yl)dihydropyrimidine-2,4(1H,3H)-dione], the “substrate protein remaining % WEE1” value at WEE1 is “A (0% ≤ substrate protein remaining % ≤ 80%)”. At IKZF1, the “substrate protein remaining % IKZF1” value is “A (0% ≤ substrate protein remaining % ≤ 80%)”. For the same compound, the “substrate protein remaining % IKZF2” value on IKZF2 is recorded as “A (0% ≤ substrate protein remaining % ≤ 80%)”. In addition, the “substrate protein remaining % IKZF3” value on IKZF3 was “A (0% ≤ substrate protein remaining % ≤ 80%)”. The “substrate protein remaining % CK1α” value on CK1α is listed as “B (80%< substrate protein remaining %≤ 100%)”. In addition, on GSPT1, the “substrate protein remaining % GSPT1” value is “A (0% ≤ substrate protein remaining % ≤ 80%)”.
Consider `CC1(C)CCC(CN2CC3CCC2CN3Cc2ccc3c(c2)CN(N2CCC(=O)NC2=O)C3=O)=C(c2ccc(Cl)cc2)C1` (stereo not drawn) [GT-07331, 1-(5-((5-((4'-chloro-5,5-dimethyl-3,4,5,6-tetrahydro-[1,1'-biphenyl]-2-yl)methyl)-2,5-diazabicyclo[2.2.2]octan-2-yl)methyl)-1-oxoisoindolin-2-yl)dihydropyrimidine-2,4(1H,3H)-dione], for which the “substrate protein remaining % WEE1” value on WEE1 is given as “A (0% ≤ substrate protein remaining % ≤ 80%)”. The “substrate protein remaining % IKZF1” value on IKZF1 is listed as “A (0% ≤ substrate protein remaining % ≤ 80%)”. For the same compound, the “substrate protein remaining % IKZF2” value on IKZF2 is “B (80%< substrate protein remaining %≤ 100%)”. In addition, the “substrate protein remaining % IKZF3” value on IKZF3 is “A (0% ≤ substrate protein remaining % ≤ 80%)”. Besides, on CK1α, the “substrate protein remaining % CK1α” value is recorded as “A (0% ≤ substrate protein remaining % ≤ 80%)”. For the same compound, the “substrate protein remaining % GSPT1” value at GSPT1 is reported as “A (0% ≤ substrate protein remaining % ≤ 80%)”.
As to `CC1(C)CC(c2ccc(Cl)cc2)=C(CN2CCN(Cc3ccc4c(c3)CN(N3CCC(=O)NC3=O)C4=O)CC2)CO1` [GT-07332, 1-(5-((4-((4-(4-chlorophenyl)-6,6-dimethyl-5,6-dihydro-2H-pyran-3-yl)methyl)piperazin-1-yl)methyl)-1-oxoisoindolin-2-yl)dihydropyrimidine-2,4(1H,3H)-dione], the “substrate protein remaining % WEE1” value on WEE1 is recorded as “A (0% ≤ substrate protein remaining % ≤ 80%)”. On IKZF1, the “substrate protein remaining % IKZF1” value is given as “A (0% ≤ substrate protein remaining % ≤ 80%)”. Besides, the “substrate protein remaining % IKZF2” value at IKZF2 is reported as “B (80%< substrate protein remaining %≤ 100%)”. The “substrate protein remaining % IKZF3” value on IKZF3 is on record as “A (0% ≤ substrate protein remaining % ≤ 80%)”. For the same compound, the “substrate protein remaining % CK1α” value at CK1α was “B (80%< substrate protein remaining %≤ 100%)”. In addition, on GSPT1, the “substrate protein remaining % GSPT1” value is on record as “A (0% ≤ substrate protein remaining % ≤ 80%)”.
For the compound `CC1(C)CCC(CN2CC3CCC(C2)N3Cc2ccc3c(c2)C(=O)N(N2CCC(=O)NC2=O)C3=O)=C(c2ccc(Cl)cc2)C1` [GT-07333, 5-((3-((4'-chloro-5,5-dimethyl-3,4,5,6-tetrahydro-[1,1'-biphenyl]-2-yl)methyl)-3,8-diazabicyclo[3.2.1]octan-8-yl)methyl)-2-(2,4-dioxotetrahydropyrimidin-1(2H)-yl)isoindoline-1,3-dione], at WEE1, the “substrate protein remaining % WEE1” value was “B (80%< substrate protein remaining %≤ 100%)”. Besides, the “substrate protein remaining % IKZF1” value on IKZF1 is listed as “B (80%< substrate protein remaining %≤ 100%)”. Further, the “substrate protein remaining % IKZF2” value on IKZF2 is listed as “B (80%< substrate protein remaining %≤ 100%)”. The “substrate protein remaining % IKZF3” value at IKZF3 is recorded as “B (80%< substrate protein remaining %≤ 100%)”. For the same compound, on CK1α, the “substrate protein remaining % CK1α” value is on record as “B (80%< substrate protein remaining %≤ 100%)”. Moreover, on GSPT1, the “substrate protein remaining % GSPT1” value is “A (0% ≤ substrate protein remaining % ≤ 80%)”.
With `CC1(C)CCC(CN2CC3CC2CN3Cc2ccc3c(c2)C(=O)N(N2CCC(=O)NC2=O)C3=O)=C(c2ccc(Cl)cc2)C1` (stereo not drawn) [GT-07334, 5-((5-((4'-chloro-5,5-dimethyl-3,4,5,6-tetrahydro-[1,1'-biphenyl]-2-yl)methyl)-2,5-diazabicyclo[2.2.1]heptan-2-yl)methyl)-2-(2,4-dioxotetrahydropyrimidin-1(2H)-yl)isoindoline-1,3-dione], the “substrate protein remaining % WEE1” value at WEE1 is “A (0% ≤ substrate protein remaining % ≤ 80%)”. Besides, the “substrate protein remaining % IKZF1” value at IKZF1 is recorded as “B (80%< substrate protein remaining %≤ 100%)”. Further, on IKZF2, the “substrate protein remaining % IKZF2” value is “B (80%< substrate protein remaining %≤ 100%)”. The “substrate protein remaining % IKZF3” value on IKZF3 is on record as “B (80%< substrate protein remaining %≤ 100%)”. At CK1α, the “substrate protein remaining % CK1α” value is given as “A (0% ≤ substrate protein remaining % ≤ 80%)”. Further, the “substrate protein remaining % GSPT1” value at GSPT1 is given as “B (80%< substrate protein remaining %≤ 100%)”.
On to `Cc1cscc1C1CCN(Cc2ccc3c(c2)CN(N2CCC(=O)NC2=O)C3=O)CC1` [GT-07372, 1-(5-((4-(4-methylthiophen-3-yl)piperidin-1-yl)methyl)-1-oxoisoindolin-2-yl)dihydropyrimidine-2,4(1H,3H)-dione], for which the “substrate protein remaining % WEE1” value at WEE1 is “B (80%< substrate protein remaining %≤ 100%)”. In addition, at IKZF1, the “substrate protein remaining % IKZF1” value is given as “B (80%< substrate protein remaining %≤ 100%)”. For the same compound, the “substrate protein remaining % IKZF2” value at IKZF2 is listed as “B (80%< substrate protein remaining %≤ 100%)”. For the same compound, the “substrate protein remaining % IKZF3” value at IKZF3 was “A (0% ≤ substrate protein remaining % ≤ 80%)”. Besides, at CK1α, the “substrate protein remaining % CK1α” value is given as “B (80%< substrate protein remaining %≤ 100%)”. Also, the “substrate protein remaining % GSPT1” value on GSPT1 was “A (0% ≤ substrate protein remaining % ≤ 80%)”.
As to `Cc1cc(C2CCN(Cc3ccc4c(c3)CN(N3CCC(=O)NC3=O)C4=O)CC2)cs1` [GT-07373, 1-(5-((4-(5-methylthiophen-3-yl)piperidin-1-yl)methyl)-1-oxoisoindolin-2-yl)dihydropyrimidine-2,4(1H,3H)-dione], the “substrate protein remaining % WEE1” value at WEE1 is reported as “B (80%< substrate protein remaining %≤ 100%)”. In addition, the “substrate protein remaining % IKZF1” value on IKZF1 was “B (80%< substrate protein remaining %≤ 100%)”. The “substrate protein remaining % IKZF2” value at IKZF2 is “B (80%< substrate protein remaining %≤ 100%)”. On IKZF3, the “substrate protein remaining % IKZF3” value is “A (0% ≤ substrate protein remaining % ≤ 80%)”. Besides, the “substrate protein remaining % CK1α” value on CK1α is recorded as “B (80%< substrate protein remaining %≤ 100%)”. For the same compound, on GSPT1, the “substrate protein remaining % GSPT1” value is recorded as “A (0% ≤ substrate protein remaining % ≤ 80%)”.
Regarding `O=C1CCN(N2Cc3cc(CN4CCC(c5ccco5)CC4)ccc3C2=O)C(=O)N1` [GT-07374, 1-(5-((4-(furan-2-yl)piperidin-1-yl)methyl)-1-oxoisoindolin-2-yl)dihydropyrimidine-2,4(1H,3H)-dione], the “substrate protein remaining % WEE1” value on WEE1 was “B (80%< substrate protein remaining %≤ 100%)”. On IKZF1, the “substrate protein remaining % IKZF1” value is “B (80%< substrate protein remaining %≤ 100%)”. Also, on IKZF2, the “substrate protein remaining % IKZF2” value is reported as “B (80%< substrate protein remaining %≤ 100%)”. Further, on IKZF3, the “substrate protein remaining % IKZF3” value is on record as “B (80%< substrate protein remaining %≤ 100%)”. In addition, at CK1α, the “substrate protein remaining % CK1α” value was “A (0% ≤ substrate protein remaining % ≤ 80%)”. Moreover, the “substrate protein remaining % GSPT1” value at GSPT1 is given as “A (0% ≤ substrate protein remaining % ≤ 80%)”.
Regarding `O=C1CCN(N2Cc3cc(CN4CCC(c5ccoc5)CC4)ccc3C2=O)C(=O)N1` [GT-07375, 1-(5-((4-(furan-3-yl)piperidin-1-yl)methyl)-1-oxoisoindolin-2-yl)dihydropyrimidine-2,4(1H,3H)-dione], on WEE1, the “substrate protein remaining % WEE1” value is listed as “B (80%< substrate protein remaining %≤ 100%)”. Moreover, the “substrate protein remaining % IKZF1” value at IKZF1 is given as “B (80%< substrate protein remaining %≤ 100%)”. The “substrate protein remaining % IKZF2” value on IKZF2 is “B (80%< substrate protein remaining %≤ 100%)”. The “substrate protein remaining % IKZF3” value on IKZF3 is reported as “B (80%< substrate protein remaining %≤ 100%)”. The “substrate protein remaining % CK1α” value at CK1α was “A (0% ≤ substrate protein remaining % ≤ 80%)”. Further, on GSPT1, the “substrate protein remaining % GSPT1” value is “A (0% ≤ substrate protein remaining % ≤ 80%)”.
Consider `O=C1CCN(N2Cc3cc(CN4C5CC4CN(C(=O)C4=C(c6ccc(F)cc6)CCCC4)C5)ccc3C2=O)C(=O)N1` [GT-07376, 1-(5-((3-(4'-fluoro-3,4,5,6-tetrahydro-[1,1'-biphenyl]-2-carbonyl)-3,6-diazabicyclo[3.1.1]heptan-6-yl)methyl)-1-oxoisoindolin-2-yl)dihydropyrimidine-2,4(1H,3H)-dione], for which the “substrate protein remaining % WEE1” value at WEE1 was “A (0% ≤ substrate protein remaining % ≤ 80%)”. Besides, at IKZF1, the “substrate protein remaining % IKZF1” value is “B (80%< substrate protein remaining %≤ 100%)”. At IKZF2, the “substrate protein remaining % IKZF2” value is “B (80%< substrate protein remaining %≤ 100%)”. For the same compound, the “substrate protein remaining % IKZF3” value at IKZF3 is listed as “B (80%< substrate protein remaining %≤ 100%)”. Besides, the “substrate protein remaining % CK1α” value on CK1α was “B (80%< substrate protein remaining %≤ 100%)”. Also, at GSPT1, the “substrate protein remaining % GSPT1” value is on record as “B (80%< substrate protein remaining %≤ 100%)”.
